# Source: patent publication US10975068B2, “6-aminopyridin-3-yl thiazoles as modulators of RORγT” (Janssen Pharmaceutica NV, priority 2016, dated 2021)
# pIC50, pKd: −log10 of the molar value. Read-outs that look alike come from different tables or passages of the source.
# Assays:
# [1] = target: full-length human RORγt (Homo sapiens (Human), UniProt P51449); assay: RORγt (full-length human) reporter assay, Conditions B or C; format: cell-based; conditions: for inhibition at 3 µM: at 3 μM compound concentration; for pIC50: read-out: RORγt (FL) Reporter Assay B or C, IC50; for inhibition at 6 µM: read-out: RORγt (FL) Reporter Assay B or C, % inhibition @ 6 μM, Conditions B or C
# Sequence of full-length human RORγt (P51449 other isoform, or with tags, fused parts or gaps): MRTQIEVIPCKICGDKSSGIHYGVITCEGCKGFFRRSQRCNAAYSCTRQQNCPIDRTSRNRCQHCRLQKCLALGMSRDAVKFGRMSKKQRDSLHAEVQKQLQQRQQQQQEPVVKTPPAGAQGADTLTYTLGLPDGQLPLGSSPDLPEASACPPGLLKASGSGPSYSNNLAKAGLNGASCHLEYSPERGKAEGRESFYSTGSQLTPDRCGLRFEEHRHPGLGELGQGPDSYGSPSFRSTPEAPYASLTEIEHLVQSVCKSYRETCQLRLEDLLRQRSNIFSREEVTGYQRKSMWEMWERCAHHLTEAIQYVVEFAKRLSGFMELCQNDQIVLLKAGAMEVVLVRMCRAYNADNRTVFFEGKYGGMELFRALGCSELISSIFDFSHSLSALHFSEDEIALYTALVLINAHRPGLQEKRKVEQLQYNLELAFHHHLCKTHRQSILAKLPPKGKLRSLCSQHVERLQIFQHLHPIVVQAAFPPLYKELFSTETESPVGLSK
# How it was run: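 HEK293T cells transiently co-transfected with GAL4-DBD–full-length human RORγt (nt 142-1635, NM_001001523.1) plus GAL4-firefly and CMV-Renilla luciferase reporters; compounds added 4-6 h post-transfection for 16-20 h in 1.3% FBS, 0.1% DMSO. Firefly signal normalized to DMSO and saturating reference compound, then to Renilla; IC50 from concentration plots.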
# [2] = target: human RORγt ligand binding domain (RORγt LBD) (Homo sapiens (Human), UniProt P51449); assay: RORγt ThermoFluor® assay (thermal shift binding); conditions: read-out: ThermoFluor® Assay, Kd
# Sequence of human RORγt ligand binding domain (RORγt LBD) (P51449 other isoform, or with tags, fused parts or gaps): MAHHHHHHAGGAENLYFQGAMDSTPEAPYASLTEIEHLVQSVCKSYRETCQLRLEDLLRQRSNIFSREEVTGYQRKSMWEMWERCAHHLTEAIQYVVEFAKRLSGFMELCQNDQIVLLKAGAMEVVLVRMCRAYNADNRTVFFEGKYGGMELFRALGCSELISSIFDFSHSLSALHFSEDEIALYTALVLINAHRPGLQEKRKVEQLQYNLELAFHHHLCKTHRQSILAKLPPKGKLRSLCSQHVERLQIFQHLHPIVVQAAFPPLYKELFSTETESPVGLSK
# How it was run: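 His-tagged human RORγt LBD (0.065 mg/mL) with 60 μM 1,8-ANS in 100 mM Hepes pH 7.0, 10 mM NaCl, 2.5 mM GSH, 0.002% Tween-20 was heated at 1 °C/min.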
# [3] = read-out: RORγt (FL) Reporter Assay B or C, % inhibition
Compound,"inhibition at 3 µM [1, 3] [%]",pIC50 [1],pKd [2],"RORγt (FL) Reporter Assay B or C, % inhibition (value marked *) ([1]; Conditions B or C, marked *: footnote not given)",pIC50 ([1]; Conditions B or C),"inhibition at 0.3 µM ([1]; at 0.3 μM compound concentration, read-out: RORγt (FL) Reporter Assay B or C, % inhibition) [%]",inhibition at 6 µM [1] [%]
"C[C@H]1CCCN1C(=O)c1nc(C(=O)NC2(CO)CC2)sc1-c1cnc(NC(C)(C)C)cc1C(F)(F)F [Example 263, 5-[6-(tert-Butylamino)-4-(trifluoromethyl)-3-pyridyl]-N-[1-(hydroxymethyl)cyclopropyl]-4-[(2S)-2-methylpyrrolidine-1-carbonyl]thiazole-2-carboxamide]",107,8.18,8.96,,,,
"CC(C)(O)CNC(=O)c1nc(C(=O)N2C3CCC2CC3)c(-c2cnc(NC(C)(C)C3CC3)cc2C(F)F)s1 [Example 97, 4-((1s,4s)-7-Azabicyclo[2.2.1]heptane-7-carbonyl)-5-(6-((2-cyclopropylpropan-2-yl)amino)-4-(difluoromethyl)pyridin-3-yl)-N-(2-hydroxy-2-methylpropyl)thiazole-2-carboxamide]",,,8.89,111* %,8.44,,
"CC[C@H](Nc1cc(C(F)F)c(-c2sc(C(=O)N[C@H]3CC[C@@H]3O)nc2C(=O)N2C3CCC2CC3)cn1)C(F)(F)F (relative stereo) [Example 406, 4-((1s,4s)-7-Azabicyclo[2.2.1]heptane-7-carbonyl)-5-(4-(difluoromethyl)-6-(((S)-1,1,1-trifluorobutan-2-yl)amino)pyridin-3-yl)-N-((1S*,2S*)-2-hydroxycyclobutyl)thiazole-2-carboxamide]",,7.09,8.57,,,92,
"CC[C@H](Nc1cc(C(F)F)c(-c2sc(C(=O)N[C@@H]3CC[C@H]3O)nc2C(=O)N2C3CCC2CC3)cn1)C(F)(F)F (relative stereo) [Example 405, 4-((1s,4s)-7-Azabicyclo[2.2.1]heptane-7-carbonyl)-5-(4-(difluoromethyl)-6-(((S)-1,1,1-trifluorobutan-2-yl)amino)pyridin-3-yl)-N-((1R*,2R*)-2-hydroxycyclobutyl)thiazole-2-carboxamide]",95,6.96,8.70,,,,
"C[C@H]1CCN1C(=O)c1nc(C(=O)NCC(C)(C)O)sc1-c1cnc(NC2CCCCC2)cc1C(F)(F)F [Example 25, (S)-5-(6-(Cyclohexylamino)-4-(trifluoromethyl)pyridin-3-yl)-N-(2-hydroxy-2-methylpropyl)-4-(2-methylazetidine-1-carbonyl)thiazole-2-carboxamide]",,,6.92,,6.66,,102
CC[C@H](Nc1cc(C(F)F)c(-c2sc(C(=O)N[C@@H]3CC[C@@H](O)C3)nc2C(=O)N2C3CCC2CC3)cn1)C(F)(F)F [Example 152],,,9.06,,7.96,,102

# Second part, led by results:
"inhibition at 3 µM [1, 3] [%]",pIC50 [1],pKd [2],Compound,"RORγt (FL) Reporter Assay B or C, % inhibition (value marked *) ([1]; Conditions B or C, marked *: footnote not given)",pIC50 ([1]; Conditions B or C),"inhibition at 0.3 µM ([1]; at 0.3 μM compound concentration, read-out: RORγt (FL) Reporter Assay B or C, % inhibition) [%]",inhibition at 6 µM [1] [%]
100,6.92,7.82,"CC[C@@H](CO)NC(=O)c1nc(C(=O)N2CCC[C@@H]2C)c(-c2cnc(N[C@@H](C)C(F)(F)F)cc2C(F)F)s1 [Example 407, 5-[4-(Difluoromethyl)-6-[[(1S)-2,2,2-trifluoro-1-methyl-ethyl]amino]-3-pyridyl]-N-[(1S)-1-(hydroxymethyl)propyl]-4-[(2S)-2-methylpyrrolidine-1-carbonyl]thiazole-2-carboxamide]",,,,
102,7.33,8.48,"CC[C@H](Nc1cc(C(F)F)c(-c2sc(C(=O)N[C@H](C)C(C)(C)O)nc2C(=O)N2CCC[C@@H]2C)cn1)C(F)(F)F [Example 267, 5-[4-(Difluoromethyl)-6-[[(1S)-1-(trifluoromethyl)propyl]amino]-3-pyridyl]-N-[(1R)-2-hydroxy-1,2-dimethyl-propyl]-4-[(2S)-2-methylpyrrolidine-1-carbonyl]thiazole-2-carboxamide]",,,,
102,7.40,8.89,"C[C@H]1CCCN1C(=O)c1nc(C(=O)N[C@H](C)C(C)(C)O)sc1-c1cnc(NC(C)(C)C)cc1C(F)(F)F [Example 335, 5-[6-(tert-Butylamino)-4-(trifluoromethyl)-3-pyridyl]-N-[(1R)-2-hydroxy-1,2-dimethyl-propyl]-4-[(2S)-2-methylpyrrolidine-1-carbonyl]thiazole-2-carboxamide]",,,,
